We go through six compounds from patent US6683092B1, “[3-(C5-14ALKYL-2-OXO-1,2,3,4-TETRAHYDRO-QUINOLIN-6-YL)-3-OXO-PROPENYL]-PHENYL AND [3-(C5-14ALKYL-2-OXO-1,2,3,4- TETRAHYDRO-QUINOLIN-6-YL)-3-OXO-PROPENYL]-HETEROARYL DERIVATIVES HAVING ANTI-TUMOR ACTIVITY” (Allergan, Inc., priority 2003, dated 2004).

Entries after “also recorded” stand apart in the source; their conditions may differ.

In general, EC50 refers to the midpoint of the concentration-response curve. High values mean weaker potency, low ones greater potency.

Assay [1] has as its system breast cancer cell line MCF-7. The assay is described as follows: Colony (clonogenic) assay, serum-free, MCF-7. Type of assay: cell-based. The conditions noted are these: 14 days, concentration giving 50% inhibition of cell growth. As to the method: (§1) Specifically, the following assay procedure was employed to test certain exemplary compounds of the invention in the breast cancer cell line known in the art as MCF-7 and in the prostrate cancer cell line known in the art as LNCaP.
(§2) Set 4 mL cultures in 60 mm petri dishes
(medium for MCF-7—DMEN with L-glutamine & without glucose)
(§3) Seeding density: LNCaP serum-free 1200 cells/dish; MCF-7 serum-free 1400 cells/dish
(§4) Add compound immediately after setting cultures and then change the media and re-feed with compound at day 2 (or day 3 for assays set on Fridays).
(§5) Incubated for 14 days (serum free lines)
(§6) 2. fix with 10% formal saline for ˜30 mins
(§7) 3. remove formal saline and wash with 2-3 mLs PBS
(§8) 4. stain with 1% methylene blue in PBS, leave this on for ˜1 hr
(§9) 5. remove stain and wash off in tap water
(§10) 6. dry overnight and count the colonies
(§11) The results obtained in these assays are shown in Table 1, expressed in EC50 numbers, where EC50 is the concentration (expressed as nanomolar) of the compound that results in 50% inhibition of the growth of the cells.

Assay [2] concerns prostate cancer cell line LNCaP. The assay is described as follows: Colony (clonogenic) assay, serum-free, LNCaP. It is filed as cell-based. The conditions noted are these: 14 days, concentration giving 50% inhibition of cell growth; for EC50: Homo sapiens, LNCaP, 336 h. As to the method: as §1, §2
(medium for LNCaP—[…] with ITS & linoleic acid)
as §3, §4, §5, §6, §7, §8, §9, §10, §11

“4-[3-(1-Phenylethyl-4,4-dimethyl-2-oxo-1,2,3,4-tetrahydro-quinolin-6-yl)-3-oxo-propenyl]-benzoic acid [Compound 8e]” yielded an EC50 in assay [1] of 9 nM. Further, the “EC50 for Prostate Cancer Cell Line (LNCaP)” value in assay [2] was “Not Active”.

On to `CCCCCCN1C(=O)CC(C)(C)c2cc(C(=O)C=Cc3ccc(C(=O)O)cc3)ccc21` [Compound 8a, 4-[3-(1-Hexyl-4,4-dimethyl-2-oxo-1,2,3,4-tetrahydro-quinolin-6-yl)-3-oxo-propenyl]-benzoic acid], for which the EC50 in assay [1] (Homo sapiens, MCF7, 336 h) was 9 nM; in assay [2] it was 90 nM.

For `CCCCCCCCN1C(=O)CC(C)(C)c2cc(C(=O)C=Cc3ccc(C(=O)O)cc3)ccc21` [Compound 8c, 4-[3-(1-Octyl-4,4-dimethyl-2-oxo-1,2,3,4-tetrahydro-quinolin-6-yl)-3-oxo-propenyl]-benzoic acid], the EC50 in assay [1] (Homo sapiens, MCF7, 336 h) is 30 nM; in assay [2], 52 nM.

Regarding `CN1C(=O)CC(C)(C)c2cc(C(=O)C=Cc3ccc(C(=O)O)cc3)ccc21` [Compound 8f, 4-[3-(1-Methyl-4,4-dimethyl-2-oxo-1,2,3,4-tetrahydro-quinolin-6-yl)-3-oxo-propenyl]-benzoic acid], the “EC50 for Breast Cancer Cell Line (MCF-7)” value in assay [1] is “inactive; also recorded: Not Active”. Besides, in assay [2], the “EC50 for Prostate Cancer Cell Line (LNCaP)” value is “inactive; also recorded: Not Active”.

Take `CCCCCCCN1C(=O)CC(C)(C)c2cc(C(=O)C=Cc3ccc(C(=O)O)cc3)ccc21` [Compound 8b, 4-[3-(1-Heptyl-4,4-dimethyl-2-oxo-1,2,3,4-tetrahydro-quinolin-6-yl)-3-oxo-propenyl]-benzoic acid]: the EC50 was found to be 9 nM in assay [1] (Homo sapiens, MCF7, 336 h) and 155 nM in assay [2].

In the case of `CCCCCCCCCN1C(=O)CC(C)(C)c2cc(C(=O)C=Cc3ccc(C(=O)O)cc3)ccc21` [Compound 8d, 4-[3-(1-Nonyl-4,4-dimethyl-2-oxo-1,2,3,4-tetrahydro-quinolin-6-yl)-3-oxo-propenyl]-benzoic acid], the EC50 in assay [1] (Homo sapiens, MCF7, 336 h) was found to be 3 nM; in assay [2], 155 nM.
